# Measured values published in patent US7902248B2, “Oxime glucokinase activators” (Hoffmann-La Roche Inc., priority 2006, dated 2011).
# Target: T1, Recombinant human liver GK (GST-GK) (Homo sapiens, UniProt P35557)
# T1 construct: made in house; host or cells: E. coli
# T1 sequence (P35557 1-466 isoform P35557-2): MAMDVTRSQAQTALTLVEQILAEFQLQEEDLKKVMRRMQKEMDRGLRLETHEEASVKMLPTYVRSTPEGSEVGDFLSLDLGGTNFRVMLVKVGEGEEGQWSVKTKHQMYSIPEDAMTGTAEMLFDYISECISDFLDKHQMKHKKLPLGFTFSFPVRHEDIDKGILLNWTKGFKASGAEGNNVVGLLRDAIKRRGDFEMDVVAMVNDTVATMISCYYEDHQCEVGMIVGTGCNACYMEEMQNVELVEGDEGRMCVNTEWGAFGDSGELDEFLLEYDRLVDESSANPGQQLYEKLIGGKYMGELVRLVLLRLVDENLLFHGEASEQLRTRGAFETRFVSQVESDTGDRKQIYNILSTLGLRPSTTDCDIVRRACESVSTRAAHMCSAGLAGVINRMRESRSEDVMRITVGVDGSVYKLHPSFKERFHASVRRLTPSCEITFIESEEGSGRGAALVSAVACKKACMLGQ
# Experiment: In vitro glucokinase activity assay (G6PDH-coupled NADH generation, OD 340 nm)
# Format: biochemical
# Settings: concentration of activator that produced a 50% increase in the activity of GK; 5 mM D-glucose, 25° C.-30° C., pH 7.1
# Procedure: Glucokinase In Vitro Assay Protocol. Glucokinase (GK) was assayed by coupling the production of glucose-6-phosphate to the generation of NADH with glucose-6-phosphate dehydrogenase (G6PDH, Roche) from Leuconostoc mesenteroides as the coupling enzyme (Scheme 2).
# Recombinant human liver GK was expressed in E. coli as a glutathione S-transferase fusion protein (GST-GK) [Liang et al, 1995] and was purified by chromatography over a glutathione-Sepharose 4B affinity column using the procedure provided by the manufacturer (Amersham Pharmacia Biotech, Piscataway, N.J.).
# The assay was conducted at 25° C.-30° C. in a flat bottom 96-well tissue culture plate from Costar (Cambridge, Mass.) with a final incubation volume of 120 μL. The incubation reaction contained the following: 25 mM Hepes buffer (pH 7.1), 25 mM KCl, 5 mM D-glucose, 1 mM ATP, 1.8 mM NAD, 2 mM MgCl2, 1 μM sorbitol-6-phosphate, 1 mM dithiothreitol, test drug or 10% DMSO, 1.8 unit/ml G6PDH, and GK (see below). All organic reagents were >98% pure and were from Roche with the exceptions of D-glucose and Hepes which were from Sigma Chemical Co, St Louis, Mo. Test compounds were dissolved in DMSO and were added to the incubation reaction minus GST-GK in a volume of 12 μL to yield a final DMSO concentration of 10%. This mix was pre-incubated in the temperature controlled chamber of a SPECTRAmax 250 microplate spectrophotometer (Molecular Devices Corporation, Sunnyvale, Calif.) for 10 minutes to allow temperature equilibrium and then the reaction was started by the addition of 20 μL GST-GK.
# After addition of enzyme, the increase in optical density (OD) at 340 nm was monitored over a 15 minute incubation period as a measure of GK activity. The GK activity in control wells (mOD/min) was compared with the activity in wells containing test GK activators (mOD/min), and the concentration of activator that produced a 50% increase in the activity of GK, i.e., the SC1.5, was calculated.
row,Structure (SMILES),SC1.5
1,"CS(=O)(=O)c1ccc(/C(=N\OC2CCCCC2)C(=O)Nc2ncc(C(N)=O)s2)cc1Cl [Example 12, (E)-2-[2-(3-Chloro-4-methanesulfonyl-phenyl)-2-cyclohexyloxyimino-acetylamino]-thiazole-5-carboxylic acid amide]",1.1 µM
2,"CC(C)CO/N=C(/C(=O)Nc1ccn(C)n1)c1ccc(S(C)(=O)=O)c(Cl)c1 [Example 24, (E)-2-(3-Chloro-4-methanesulfonyl-phenyl)-2-isobutoxyimino-N-(1-methyl-1H-pyrazol-3-yl)-acetamide]",5.3 µM
3,"CS(=O)(=O)c1ccc(/C(=N\OC2CCCC2)C(=O)Nc2nc3ccc(Cl)cc3s2)cc1Cl [Example 23, (E)-N-(6-Chloro-benzothiazol-2-yl)-2-(3-chloro-4-methanesulfonyl-phenyl)-2-cyclopentyloxyimino-acetamide]",2.8 µM
4,"CC(C)CO/N=C(/C(=O)Nc1nc2ccccc2s1)c1ccc(S(C)(=O)=O)c(Cl)c1 [Example 25, (E)-N-Benzothiazol-2-yl-2-(3-chloro-4-methanesulfonyl-phenyl)-2-isobutoxyimino-acetamide]",1.6 µM
5,"CS(=O)(=O)c1ccc(/C(=N\OC2CCCC2)C(=O)Nc2ccn(Cc3cccnc3)n2)cc1Cl [Example 31, (E)-2-(3-Chloro-4-methanesulfonyl-phenyl)-2-cyclopentyloxyimino-N-(1-pyridin-3-ylmethyl-1H-pyrazol-3-yl)-acetamide]",0.35 µM
6,"CS(=O)(=O)c1ccc(/C(=N\OC2CCCC2)C(=O)Nc2nc3ccccc3s2)cc1Cl [Example 14, (E)-N-Benzothiazol-2-yl-2-(3-chloro-4-methanesulfonyl-phenyl)-2-cyclopentyloxyimino-acetamide]",0.26 µM
7,"O=C(Nc1nc2ccccc2s1)/C(=N/OC1CCCC1)c1ccc(Cl)c(Cl)c1 [Example 19, (E)-N-Benzothiazol-2-yl-2-cyclopentyloxyimino-2-(3,4-dichloro-phenyl)-acetamide]",29 µM
8,"Cc1nsc(NC(=O)/C(=N/OC2CCCCC2)c2ccc(S(C)(=O)=O)c(Cl)c2)n1 [Example 10, (E)-2-(3-Chloro-4-methanesulfonyl-phenyl)-2-cyclohexyloxyimino-N-(3-methyl-[1,2,4]thiadiazol-5-yl)-acetamide]",8.4 µM
9,"Cn1ccc(NC(=O)/C(=N/OC2CCCCC2)c2ccc(S(C)(=O)=O)c(Cl)c2)n1 [Example 9, (E)-2-(3-Chloro-4-methanesulfonyl-phenyl)-2-cyclohexyloxyimino-N-(1-methyl-1H-pyrazol-3-yl)-acetamide]",12 µM
10,"CC(C)O/N=C(/C(=O)Nc1nc2ccccc2s1)c1ccc(S(C)(=O)=O)c(Cl)c1 [Example 7, (E)-N-Benzothiazol-2-yl-2-(3-chloro-4-methanesulfonyl-phenyl)-2-isopropoxyimino-acetamide]",0.79 µM
